According to US8912329B2 (priority 2009, dated 2014):

Tests used:
[1] = test system: Mycobacterium tuberculosis laboratory strain H37Rv; experiment: Growth inhibition / drug susceptibility testing of M. tuberculosis with MGIT 960 system, compounds combined with ethionamide; type: cell-based; design: key to growth inhibition of M. tuberculosis H37Rv (R/I/S): R: Resistance, no effect of combinatorial drug application; I: intermediate; S: sensitive
[2] = 250 mg oral; cited from earlier work
EthR-VP16 = EthR-VP16 (Mycobacterium bovis, UniProt Q7TVI1); experiment: cell-based; design: species or system M. bovis; details: 48 h, read-out: % EthR activity (w/o = 100%); ± std. dev. of the mean (n = 3)
EthR-VP16, sequence (Q7TVI1 whole entry, looked up): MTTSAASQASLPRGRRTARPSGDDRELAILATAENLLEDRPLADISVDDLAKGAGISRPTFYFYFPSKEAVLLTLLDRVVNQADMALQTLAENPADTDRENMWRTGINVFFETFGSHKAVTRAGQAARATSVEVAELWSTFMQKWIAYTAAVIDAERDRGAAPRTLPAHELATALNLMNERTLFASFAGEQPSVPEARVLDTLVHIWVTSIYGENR

## CCc1cc(C(N)=S)ccn1 [Ethionamide, 2-ethylthioiso-nicotinamide, reference compound]
[1]; ethionamide 0.16 μg/ml alone (Example compound 0 μM)
  growth inhibition of M. tuberculosis H37Rv (R/I/S): R
[1]; ethionamide 0.31 μg/ml alone (Example compound 0 μM)
  growth inhibition of M. tuberculosis H37Rv (R/I/S): R
[1]; ethionamide 0.625 μg/ml alone (Example compound 0 μM)
  growth inhibition of M. tuberculosis H37Rv (R/I/S): R
[1]; ethionamide 1.25 μg/ml alone (Example compound 0 μM)
  growth inhibition of M. tuberculosis H37Rv (R/I/S): R
[1]; ethionamide 2.5 μg/ml alone (Example compound 0 μM)
  growth inhibition of M. tuberculosis H37Rv (R/I/S): I
[1]; ethionamide 5 μg/ml alone (Example compound 0 μM)
  growth inhibition of M. tuberculosis H37Rv (R/I/S): S
[2]
  cmax: 2 µg/mL
  t1/2: 2 h

## O=C(COc1ccc(F)cc1)N1CCC(c2ccccc2)C1 (centres unmarked) [Example 15, 2-(4-Fluorophenoxy)-1-(3-phenylpyrrolidin-1-yl)ethan-1-one]
EthR-VP16
  remaining activity at 0.5 µM: 10.3 ± 1.26%
  remaining activity at 1.5 µM: 10.3 ± 0.43%
  remaining activity at 3 µM: 7.81 ± 0.95%
  remaining activity at 6 µM: 6.01 ± 1.93%
  remaining activity at 15 µM: 3.21 ± 1.35%
  remaining activity at 30 µM: 0.77 ± 0.32%
  remaining activity at 60 µM: 0.86 ± 0.36%
  remaining activity at 300 µM: 0.89 ± 0.37%
[1]; Example compound 0.5 μM + ethionamide 0.16 μg/ml
  growth inhibition of M. tuberculosis H37Rv (R/I/S): R
[1]; Example compound 0.5 μM + ethionamide 0.31 μg/ml
  growth inhibition of M. tuberculosis H37Rv (R/I/S): R
[1]; Example compound 0.5 μM + ethionamide 0.625 μg/ml
  growth inhibition of M. tuberculosis H37Rv (R/I/S): I
[1]; Example compound 0.5 μM + ethionamide 1.25 μg/ml
  growth inhibition of M. tuberculosis H37Rv (R/I/S): S
[1]; Example compound 0.5 μM + ethionamide 2.5 μg/ml
  growth inhibition of M. tuberculosis H37Rv (R/I/S): S
[1]; Example compound 0.5 μM + ethionamide 5 μg/ml
  growth inhibition of M. tuberculosis H37Rv (R/I/S): S
[1]; Example compound 0.5 μM, ethionamide 0 μg/ml
  growth inhibition of M. tuberculosis H37Rv (R/I/S): R
[1]; Example compound 1.5 μM + ethionamide 0.16 μg/ml
  growth inhibition of M. tuberculosis H37Rv (R/I/S): R
[1]; Example compound 1.5 μM + ethionamide 0.31 μg/ml
  growth inhibition of M. tuberculosis H37Rv (R/I/S): I
[1]; Example compound 1.5 μM + ethionamide 0.625 μg/ml
  growth inhibition of M. tuberculosis H37Rv (R/I/S): I
[1]; Example compound 1.5 μM + ethionamide 1.25 μg/ml
  growth inhibition of M. tuberculosis H37Rv (R/I/S): S
[1]; Example compound 1.5 μM + ethionamide 2.5 μg/ml
  growth inhibition of M. tuberculosis H37Rv (R/I/S): S
[1]; Example compound 1.5 μM + ethionamide 5 μg/ml
  growth inhibition of M. tuberculosis H37Rv (R/I/S): S
[1]; Example compound 1.5 μM, ethionamide 0 μg/ml
  growth inhibition of M. tuberculosis H37Rv (R/I/S): R
[1]; Example compound 4.5 μM + ethionamide 0.16 μg/ml
  growth inhibition of M. tuberculosis H37Rv (R/I/S): R
[1]; Example compound 4.5 μM + ethionamide 0.31 μg/ml
  growth inhibition of M. tuberculosis H37Rv (R/I/S): I
[1]; Example compound 4.5 μM + ethionamide 0.625 μg/ml
  growth inhibition of M. tuberculosis H37Rv (R/I/S): S
[1]; Example compound 4.5 μM + ethionamide 1.25 μg/ml
  growth inhibition of M. tuberculosis H37Rv (R/I/S): S
[1]; Example compound 4.5 μM + ethionamide 2.5 μg/ml
  growth inhibition of M. tuberculosis H37Rv (R/I/S): S
[1]; Example compound 4.5 μM + ethionamide 5 μg/ml
  growth inhibition of M. tuberculosis H37Rv (R/I/S): S
[1]; Example compound 4.5 μM, ethionamide 0 μg/ml
  growth inhibition of M. tuberculosis H37Rv (R/I/S): R
[1]; Example compound 13.5 μM + ethionamide 0.16 μg/ml
  growth inhibition of M. tuberculosis H37Rv (R/I/S): R
[1]; Example compound 13.5 μM + ethionamide 0.31 μg/ml
  growth inhibition of M. tuberculosis H37Rv (R/I/S): I
[1]; Example compound 13.5 μM + ethionamide 0.625 μg/ml
  growth inhibition of M. tuberculosis H37Rv (R/I/S): S
[1]; Example compound 13.5 μM + ethionamide 1.25 μg/ml
  growth inhibition of M. tuberculosis H37Rv (R/I/S): S
[1]; Example compound 13.5 μM + ethionamide 2.5 μg/ml
  growth inhibition of M. tuberculosis H37Rv (R/I/S): S
[1]; Example compound 13.5 μM + ethionamide 5 μg/ml
  growth inhibition of M. tuberculosis H37Rv (R/I/S): S
[1]; Example compound 13.5 μM, ethionamide 0 μg/ml
  growth inhibition of M. tuberculosis H37Rv (R/I/S): R
[1]; Example compound 40.5 μM + ethionamide 0.16 μg/ml
  growth inhibition of M. tuberculosis H37Rv (R/I/S): R
[1]; Example compound 40.5 μM + ethionamide 0.31 μg/ml
  growth inhibition of M. tuberculosis H37Rv (R/I/S): I
[1]; Example compound 40.5 μM + ethionamide 0.625 μg/ml
  growth inhibition of M. tuberculosis H37Rv (R/I/S): S
[1]; Example compound 40.5 μM + ethionamide 1.25 μg/ml
  growth inhibition of M. tuberculosis H37Rv (R/I/S): S
[1]; Example compound 40.5 μM + ethionamide 2.5 μg/ml
  growth inhibition of M. tuberculosis H37Rv (R/I/S): S
[1]; Example compound 40.5 μM + ethionamide 5 μg/ml
  growth inhibition of M. tuberculosis H37Rv (R/I/S): S
[1]; Example compound 40.5 μM, ethionamide 0 μg/ml
  growth inhibition of M. tuberculosis H37Rv (R/I/S): R
[1]; compound alone, without ethionamide
  growth inhibitory effect of compound alone on M. tuberculosis H37Rv: do not show any growth inhibitory effect
[1]; ethionamide 0.16 and 5 μg/ml, 0.5 to 40.5 μMol compound
  growth of M. tuberculosis H37Rv in the presence of sub-inhibitory ethionamide concentrations: dose-dependently inhibited
